# Reference: ChEMBL document CHEMBL1154296, “Potent inhibitors of beta-tryptase and human leukocyte elastase based on the MCoTI-II scaffold” (J Med Chem, 2009)
# Starred links: 1 amine or outer side, 2 acyl side, 3 side chain; linkers in the order of their positions; H or OH if unused. Positions of bridges follow the written chain, without caps; N, C: chain ends. Non-standard residues stand in square brackets, D forms with d. Residues, ends and D or L forms follow the SMILES beside them. X2 = N=C(N)NCCC[C@@H](C(=O)[C@H](CCC(N)=O)N[*:1])C(=O)[*:2]; X1 = NCCCC[C@@H](C(=O)[C@H](CCCCN)N[*:1])C(=O)[*:2]
# Columns and labels:
# [1] = Inhibition of trypsin by substrate hydrolysis based fluorescence assay
# [2] = Inhibition of tryptase by substrate hydrolysis based fluorescence assay
# Neutrophil elastase = target: T1, Neutrophil elastase (Homo sapiens, UniProt P08246); experiment: Inhibition of human leukocyte elastase by substrate hydrolysis based fluorescence assay
# T1 sequence (P08246 whole entry): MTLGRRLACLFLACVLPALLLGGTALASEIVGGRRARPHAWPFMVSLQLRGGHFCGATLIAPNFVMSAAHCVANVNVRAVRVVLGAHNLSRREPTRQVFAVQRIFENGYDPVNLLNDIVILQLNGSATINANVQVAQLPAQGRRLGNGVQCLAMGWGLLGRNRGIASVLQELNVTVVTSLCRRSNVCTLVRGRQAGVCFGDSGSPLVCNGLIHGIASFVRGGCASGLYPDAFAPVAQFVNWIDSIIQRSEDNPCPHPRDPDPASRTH
Structure (SMILES),Ki [1],Ki [2],Ki (Neutrophil elastase),Ki (Neutrophil elastase; read-out: Ki)
"CC[C@H](C)[C@@H]1NC(=O)[C@@H]2CSSC[C@@H]3NC(=O)[C@H](C(C)C)NC(=O)CNC(=O)CNC(=O)[C@H](CC(=O)O)NC(=O)[C@H](CO)NC(=O)CNC(=O)[C@H](CO)NC(=O)CNC(=O)[C@@H]4CSSC[C@H](NC(=O)[C@H](CC(=O)O)NC(=O)[C@H](CO)NC(=O)[C@H](CC(=O)O)NC(=O)[C@H](CCCNC(=N)N)NC(=O)[C@H](CCCNC(=N)N)NC(=O)[C@H](CSSC[C@H](NC1=O)C(=O)N[C@@H](CCCNC(=N)N)C(=O)NCC(=O)N[C@@H](CC(N)=O)C(=O)NCC(=O)N[C@@H](Cc1ccc(O)cc1)C(=O)N4)NC(=O)[C@@H](CCCCN)C(=O)[C@H](CCCCN)NC(=O)[C@H](CC(C)C)NC(=O)[C@H]([C@@H](C)CC)NC(=O)[C@H](CCCCN)NC(=O)[C@@H]1CCCN1C3=O)C(=O)N1CCC[C@H]1C(=O)NCC(=O)N[C@@H](C)C(=O)N2 (cyclo(ACICRGNGYCGSGSDGGVCPKIL[X1]CRRDSDCPG); disulfide 2-19, 4-25, 10-31)",0.075 nM,600 nM,Not Active,
"CC[C@H](C)[C@@H]1NC(=O)[C@@H]2CSSC[C@@H]3NC(=O)[C@H](C(C)C)NC(=O)CNC(=O)CNC(=O)[C@H](CC(=O)O)NC(=O)[C@H](CO)NC(=O)CNC(=O)[C@H](CO)NC(=O)CNC(=O)[C@@H]4CSSC[C@H](NC(=O)[C@H](CC(=O)O)NC(=O)[C@H](CO)NC(=O)[C@H](CC(=O)O)NC(=O)[C@H](CCCNC(=N)N)NC(=O)[C@H](CCCNC(=N)N)NC(=O)[C@H](CSSC[C@H](NC1=O)C(=O)N[C@@H](CCCNC(=N)N)C(=O)NCC(=O)N[C@@H](CC(N)=O)C(=O)NCC(=O)N[C@@H](Cc1ccc(O)cc1)C(=O)N4)NC(=O)[C@@H](CCCNC(=N)N)C(=O)[C@H](CCC(N)=O)NC(=O)[C@H](CC(C)C)NC(=O)[C@H]([C@@H](C)CC)NC(=O)[C@H](Cc1ccccc1)NC(=O)[C@@H]1CCCN1C3=O)C(=O)N1CCC[C@H]1C(=O)NCC(=O)N[C@@H](C)C(=O)N2 (cyclo(ACICRGNGYCGSGSDGGVCPFIL[X2]CRRDSDCPG); disulfide 2-19, 4-25, 10-31)",> 0.105 nM,> 50000 nM,,> 7500 nM
"CC[C@H](C)[C@@H]1NC(=O)[C@@H]2CSSC[C@@H]3NC(=O)[C@H](C(C)C)NC(=O)CNC(=O)CNC(=O)[C@H](CC(=O)O)NC(=O)[C@H](CO)NC(=O)CNC(=O)[C@H](CO)NC(=O)CNC(=O)[C@@H]4CSSC[C@H](NC(=O)[C@H](CC(=O)O)NC(=O)[C@H](CO)NC(=O)[C@H](CC(=O)O)NC(=O)[C@H](CCCNC(=N)N)NC(=O)[C@H](CCCNC(=N)N)NC(=O)[C@H](CSSC[C@H](NC1=O)C(=O)N[C@@H](CCCNC(=N)N)C(=O)NCC(=O)N[C@@H](CC(N)=O)C(=O)NCC(=O)N[C@@H](Cc1ccc(O)cc1)C(=O)N4)NC(=O)[C@@H](CCCNC(=N)N)C(=O)[C@H](CCC(N)=O)NC(=O)[C@H](CC(C)C)NC(=O)[C@H]([C@@H](C)CC)NC(=O)[C@H](CCCNC(=N)N)NC(=O)[C@@H]1CCCN1C3=O)C(=O)N1CCC[C@H]1C(=O)NCC(=O)N[C@@H](C)C(=O)N2 (cyclo(ACICRGNGYCGSGSDGGVCPRIL[X2]CRRDSDCPG); disulfide 2-19, 4-25, 10-31)",0.085 nM,100 nM,Not Active,
"CC[C@H](C)[C@@H]1NC(=O)[C@@H]2CSSC[C@@H]3NC(=O)[C@H](C(C)C)NC(=O)CNC(=O)CNC(=O)[C@H](CC(=O)O)NC(=O)[C@H](CO)NC(=O)CNC(=O)[C@H](CO)NC(=O)CNC(=O)[C@@H]4CSSC[C@H](NC(=O)[C@H](CC(=O)O)NC(=O)[C@H](CO)NC(=O)[C@H](CC(=O)O)NC(=O)[C@H](CCCNC(=N)N)NC(=O)[C@H](CCCNC(=N)N)NC(=O)[C@H](CSSC[C@H](NC1=O)C(=O)N[C@@H](CCCNC(=N)N)C(=O)NCC(=O)N[C@@H](CC(N)=O)C(=O)NCC(=O)N[C@@H](Cc1ccc(O)cc1)C(=O)N4)NC(=O)[C@@H](CCCNC(=N)N)C(=O)[C@H](CCC(N)=O)NC(=O)[C@H](CC(C)C)NC(=O)[C@H]([C@@H](C)CC)NC(=O)[C@H](CCC(N)=O)NC(=O)[C@@H]1CCCN1C3=O)C(=O)N1CCC[C@H]1C(=O)NCC(=O)N[C@@H](C)C(=O)N2 (cyclo(ACICRGNGYCGSGSDGGVCPQIL[X2]CRRDSDCPG); disulfide 2-19, 4-25, 10-31)",> 0.106 nM,> 50000 nM,Not Active,
